# “And” between values parts separate entries of the source, which are not always exact repeats. Identical values can stand only once.
# What was measured:
# [1] = test system: human dispersed islet cells; assay: Immunofluorescence: F-actin intensity in glucagon+ human dispersed islet cells; assay type: cell-based;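 as to F-actin intensity: ImageJ intensity within ROI drawn around each glucagon+ cell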
# Protocol: Coverslips were treated with WCDD301, preclustered Ephrin-A5 Fc, or preclustered Fc in the following sequential order: KRBH (11 mM glucose, 30 minutes), KRBH (1 mM glucose, 60 minutes), KRBH (1 mM glucose, 30 minutes), and KRBH (11 mM glucose, 60 minutes). After treatment, coverslips were washed once in PBS, fixed in 2% paraformaldehyde in PBS (30 minutes), and again washed in PBS. […] Following wash in PBS, coverslips were incubated in a mixture of Alexa Fluor 555 Phalloidin (Cell Signaling Technology, catalog 8953) and secondary antibodies (goat anti-rabbit Alexa Fluor 488, catalog A-21094, 1:1,000, Molecular Probes; and goat anti-mouse Alexa Fluor 633, catalog A21052, 1:1,000, Life Technologies) for 1 hour at RT. Both primary and secondary antibodies were diluted in blocking buffer containing 0.05% Tween 20. Coverslips were washed using PBS and counterstained by using DAPI (1:1,000) for 10 minutes. Following 2 washes in PBS, coverslips were mounted on glass slides using ProLong Glass Antifade Mountant (Invitrogen, catalog P36980). Images were captured using the Zeiss LSM880 microscope with a Plan-Apochromat 63× 1.4 NA objective lens by setting dual-band dichroic/filter for 405, 488, 561, and 633 nm laser excitation. For each slide, 25–30 fields of view were scanned, and in each field of view, 3–5 cells were imaged. […] Values of intensity were compared among groups using 1-way ANOVA, α = 0.05.
# [2] = Plasma stability assay, human plasma; assay type: in vitro ADME; details: for Ln (% Remaining): human plasma, 37°C, Figure 5A
# Protocol: Pooled frozen plasma of CD-1 mice (n = 20; catalog MSE00PLK2M2N, Beijing Vital River Laboratory Animal Technology) or humans (n = 6, catalog […]2P2N, Bioreclamation IVT), equal numbers of males and females, was thawed in a 37°C water bath, and residual clots were removed by centrifugation (500g for 5 minutes). Plasma (98 μL) was aliquoted in each well of 96-well reaction plates using an Apricot automation workstation. WCDD301 (100 μM) or propantheline bromide (100 μM, as a positive control) was added (2 μL/well) to sets of wells assigned to blank or time points (T0, T10, T30, T60, and T120 minutes) and incubated at 37°C. At each time point, the reaction was stopped by adding stop solution (500 μL; a mixture of 200 ng/mL of tolbutamide and labetalol in acetonitrile), mixed thoroughly, sealed, shaken (20 minutes), and centrifuged (1,750g, 4°C, 20 minutes). A total of 150 μL of the supernatant from each well of the reaction plate was transferred to its corresponding bioanalysis plate for LC-MS/MS analysis. The remaining level (%) of the WCDD301 was calculated using the following equation: remaining (%) = (PAR at each time point/PAR at T0) × 100. PAR stands for the peak area ratio of the WCDD301 versus internal standard.
# [3] = test system: diabetic NOD mice; assay: Plasma glutamine in NOD mice; assay type: in vivo, mouse; details: WCDD301 group of NOD mice; quantity not given
# Protocol: Terminal blood was collected into microfuge tubes containing K2-EDTA (supplemented by 45 mM phenylmethylsulphonyl fluoride and 0.77 μM aprotinin) through cardiac puncture. Plasma was separated by centrifugation (2,000g for 10 minutes at 4°C) and kept at –80°C until analysis. Plasma samples with hemolysis were excluded from the study. […] Values of BUN, creatinine, ALB, ALT, and AST were determined by a Roche Cobas C501 Autoanalyzer as performed by the Washington University Diabetes Research Center Translational Diagnostics Core. Reference intervals of blood chemistry parameters for inbred NOD mice were extracted from the Mouse Phenome Database (https://phenome.jax.org/).
# [4] = Microsomal stability assay, CD-1 mouse liver microsomes; assay type: in vitro ADME; details: for Remaining in hepatic microsomes (100 at 0 min): mouse microsomes, Figure 5D
# Protocol: A total of 445 μL of the working solution was transferred into prewarmed incubation plates for treated (T60) and control (NCF60) measurements. After preincubation (10 minutes at 37°C with constant shaking), 54 μL was transferred to the blank plate, followed by 6 μL of NADPH and 180 μL quenching solution. In parallel, 5 μL of WCDD301 (100 μM) was added into incubation plates (T60 and NCF60) containing microsomes and mixed thoroughly (3 times). For the NCF60 plate, 50 μL of buffer was added, mixed (thoroughly, 3 times), shaken, and incubated at 37°C for 60 minutes. In the quenching plate T0, quenching solution (180 μL) and NADPH cofactor (6 μL) were added. For T60 plate, 54 μL of the mixture was placed into the quenching plate (for T0 point), followed by adding 44 μL NADPH cofactor with shaking incubation at 37°C for 60 minutes. Quenching solution (180 μL) was added to quenching plates at 5, 15, 30, 45, and 60 minutes, and 60 μL of sample was transferred from T60 plate per time point to the quenching plates. For the NCF60 plates, 60 μL sample from the NCF60 incubation plate was transferred to the quenching plate (containing quenching solution) at the 60-minute time point. After plates were shaken for 10 minutes and centrifuged (1,750g, 20 minutes at 4°C), 80 μL of the supernatant was transferred into 240 μL HPLC water for LC-MS/MS analysis. The following first-order kinetic equation was used to calculate half-life (T1/2): [drawing 3]; when
# Then, intrinsic clearance [CLint (microsomal; mic)] and hepatic clearance [CLint (liver)] were predicted using the following equations ([66]): […]
smiles,measurement,setting,value
"CC(=O)OCC(N)(COC(C)=O)COC(C)=O [WCDD301, 2-(acetoxymethyl)-2-aminopropane-1,3-diyl diacetate]",F-actin intensity,"[1]; human cells, individual values, Figure 3E",9.0 and 7.2 and 6.5 and 10.4 and 8.2 and 4.2 and 10.3 and 9.6 and 6.8
same,Effect on intracellular F-actin,"[1]; α cells, human donors",increased intracellular F-actin density
same,half-life at 2 µM,"[2]; both sexes, human, plasma",4.82 h
same,Stability in human plasma versus mouse plasma,[2]; human higher than mouse,> 2.7 fold
same,Ln (% Remaining),[2]; 10 min,-0.03128
same,Ln (% Remaining),[2]; 30 min,-0.148
same,Ln (% Remaining),[2]; 60 min,0.05816
same,Ln (% Remaining),[2]; 120 min,0.01827
same,Plasma glutamine (Figure 7B),[3],0.7 and 0.74 and 0.65 and 0.71
same,half-life at 1 µM,"[4]; CD-1, mouse, liver microsomes",1.56 h
same,microsomal CLint at 1 µM,"[4]; CD-1, mouse, liver microsomes, read-out: Intrinsic microsomal clearance",14.8 µL/min/mg
same,Remaining in hepatic microsomes (100 at 0 min),[4]; 5 min,95.6
same,Remaining in hepatic microsomes (100 at 0 min),[4]; 15 min,86.5
same,Remaining in hepatic microsomes (100 at 0 min),[4]; 30 min,79.8
same,Remaining in hepatic microsomes (100 at 0 min),[4]; 45 min,69.6
same,Remaining in hepatic microsomes (100 at 0 min),[4]; 60 min,64.2
same,Hepatic clearance,"[4]; mouse, predicted from microsomal data",58.7 mL/min/kg

# — paper PMC10906223 (JCI Insight, 2024)
